Measured values: the supplement of paper PMC10307832

How the values were obtained:
Test in all cases: relative viability (nuclei count vs DMSO), 5 days (fraction); higher = more cells survive
IPA-3 + Tozasertib = compound: C1=CC=C2C(=C1)C=CC(=C2SSC3=C(C=CC4=CC=CC=C43)O)O [IPA-3] + Cc1cc(Nc2cc(N3CCN(C)CC3)nc(Sc3ccc(NC(=O)C4CC4)cc3)n2)n[nH]1 [Tozasertib] (partner 0.1 µM)
Procedure, shortened: (§1)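 Lung cancer cell lines were pin-tool dosed in 1536-well plates on the day after seeding, with either a lone drug or a fixed anchor-drug dose plus five library-drug doses (not always all listed) in √10 steps. Nuclei were counted on 4× images after 5 days. Relative viability is the ratio of treated-well to vehicle-well nuclei counts, with each value a median of duplicate plates.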

Doramapimod + Luminespib = compound: Cc1ccc(-n2nc(C(C)(C)C)cc2NC(=O)Nc2ccc(OCCN3CCOCC3)c3ccccc23)cc1 [Doramapimod] + CCNC(=O)c1noc(-c2cc(C(C)C)c(O)cc2O)c1-c1ccc(CN2CCOCC2)cc1 [Luminespib] (partner 0.01 µM)
Procedure, shortened: as §1

Doramapimod + Tozasertib = compound: Cc1ccc(-n2nc(C(C)(C)C)cc2NC(=O)Nc2ccc(OCCN3CCOCC3)c3ccccc23)cc1 [Doramapimod] + Cc1cc(Nc2cc(N3CCN(C)CC3)nc(Sc3ccc(NC(=O)C4CC4)cc3)n2)n[nH]1 [Tozasertib] (partner 0.1 µM)
Procedure, shortened: as §1

RAF265 + AZD7762 = compound: Cn1c(Nc2ccc(C(F)(F)F)cc2)nc2cc(Oc3ccnc(-c4ncc(C(F)(F)F)[nH]4)c3)ccc21 [RAF265] + NC(=O)Nc1cc(-c2cccc(F)c2)sc1C(=O)N[C@H]1CCCNC1 [AZD7762] (partner 0.2 µM)
Procedure, shortened: as §1

Cell Line | relative viability (IPA-3 + Tozasertib; first compound 0.2 µM) | relative viability (IPA-3 + Tozasertib; first compound 0.6325 µM) | relative viability (IPA-3 + Tozasertib; first compound 2 µM) | relative viability (IPA-3 + Tozasertib; first compound 6.325 µM) | relative viability (IPA-3 + Tozasertib; first compound 20 µM) | relative viability (Doramapimod + Luminespib; first compound 0.02 µM) | relative viability (Doramapimod + Luminespib; first compound 0.06325 µM) | relative viability (Doramapimod + Luminespib; first compound 0.2 µM) | relative viability (Doramapimod + Luminespib; first compound 0.6325 µM) | relative viability (Doramapimod + Luminespib; first compound 2 µM) | relative viability (Doramapimod + Tozasertib; first compound 0.02 µM) | relative viability (Doramapimod + Tozasertib; first compound 0.06325 µM) | relative viability (Doramapimod + Tozasertib; first compound 0.2 µM) | relative viability (Doramapimod + Tozasertib; first compound 0.6325 µM) | relative viability (Doramapimod + Tozasertib; first compound 2 µM) | relative viability (RAF265 + AZD7762; first compound 0.01 µM) | relative viability (RAF265 + AZD7762; first compound 0.03162 µM) | relative viability (RAF265 + AZD7762; first compound 0.1 µM) | relative viability (RAF265 + AZD7762; first compound 0.3162 µM) | relative viability (RAF265 + AZD7762; first compound 1 µM)
NCI-H1355 | 0.596 | 0.566 | 0.599 | 0.586 | 0.656 | 0.721 | 0.689 | 0.706 | 0.723 | 0.648 | 0.543 | 0.538 | 0.55 | 0.556 | 0.495 | 0.816 | 0.668 | 0.772 | 0.68 | 0.515
EKVX | 0.463 | 0.42 | 0.447 | 0.375 | 0.422 | 0.92 | 0.868 | 0.906 | 0.914 | 0.77 | 0.324 | 0.385 | 0.43 | 0.336 | 0.341 | 0.685 | 0.777 | 0.706 | 0.412 | 0.298
NCI-H441 | 0.738 | 0.596 | 0.739 | 0.739 | 0.524 | 0.317 | 0.243 | 0.399 |  | 0.298 | 0.719 | 0.63 | 0.576 |  | 0.622 | 1.1 | 1.08 | 1.2 | 0.967 | 0.936
NCI-H1975 | 0.833 | 0.685 | 0.855 | 0.906 | 0.755 | 0.173 | 0.192 | 0.207 | 0.258 | 0.266 | 0.802 | 0.729 | 0.937 | 0.817 | 0.639 | 0.694 | 0.667 | 0.635 | 0.484 | 0.406
HCC-78 | 0.508 | 0.429 | 0.448 | 0.402 | 0.398 |  |  |  |  |  | 0.404 | 0.537 | 0.291 | 0.471 | 0.402 | 0.634 | 0.863 | 0.731 | 0.269 | 0.567
NCI-H2085 | 0.907 | 0.748 | 0.823 | 0.908 | 0.951 | 0.411 | 0.601 | 0.409 | 0.46 | 0.463 | 0.882 | 0.913 | 0.852 | 0.84 | 0.796 | 1.06 | 0.879 | 1.05 | 1.1 | 0.857
H3255 | 0.595 | 0.655 | 0.652 | 0.602 | 0.741 | 0.947 | 0.844 | 0.843 | 0.686 | 0.697 | 0.688 | 0.65 | 0.669 | 0.602 | 0.452 | 0.931 | 1.01 | 0.877 |  | 0.623
NCI-H2087 | 0.273 | 0.349 | 0.274 | 0.221 | 0.253 | 0.174 | 0.215 | 0.195 | 0.158 | 0.234 | 0.32 | 0.308 | 0.253 | 0.223 | 0.233 | 1.19 | 1.18 | 1.02 | 1.2 | 1.12
LC-2-ad | 0.48 | 0.467 | 0.531 | 0.424 | 0.458 | 1.02 | 1.03 | 1.09 | 1.15 | 0.984 | 0.447 | 0.444 | 0.448 | 0.413 | 0.484 | 0.848 | 0.933 | 0.914 | 0.721 | 0.669
PC-3 [JPC-3] | 0.995 | 0.847 | 0.869 | 0.833 | 0.878 | 0.736 | 0.656 | 0.694 | 0.768 | 0.671 | 0.914 | 0.961 | 0.938 | 1.03 | 0.92 | 0.879 | 0.771 | 0.742 | 0.445 | 0.479
HCC-15 | 0.61 | 0.367 | 0.457 | 0.431 | 0.442 | 0.472 | 0.425 | 0.444 |  | 0.201 | 0.401 | 0.343 | 0.414 |  | 0.309 | 1.31 | 1.17 | 1.12 | 1.27 | 1.18
NCI-H1563 |  |  |  |  |  | 0.449 | 0.548 | 0.535 | 0.48 | 0.481 |  |  |  |  |  |  |  |  |  | 
COR-L 105 | 0.335 | 0.463 | 0.32 | 0.403 | 0.342 | 0.883 | 0.73 | 0.645 | 0.851 | 0.719 | 0.409 | 0.342 | 0.376 | 0.35 | 0.365 |  |  |  |  | 
NCI-H520 | 0.459 | 0.444 | 0.468 | 0.434 | 0.447 | 0.195 | 0.212 | 0.24 | 0.206 | 0.232 | 0.483 | 0.441 | 0.402 | 0.42 | 0.382 |  |  |  |  | 
LU99A | 0.325 | 0.255 | 0.213 | 0.267 | 0.239 | 0.26 | 0.239 | 0.239 | 0.199 | 0.24 | 0.307 | 0.248 | 0.294 | 0.252 | 0.264 | 0.419 | 0.344 | 0.404 | 0.325 | 0.235
NCI-H1666 | 0.611 | 0.604 | 0.594 | 0.6 | 0.703 | 1.02 | 1.06 | 1.06 | 1.06 | 1 | 0.642 | 0.687 | 0.641 | 0.624 | 0.597 | 0.935 | 0.882 | 0.837 | 0.854 | 0.825
NCI-H2170 | 0.822 | 0.777 | 0.675 | 0.644 | 0.769 | 0.649 | 0.754 | 0.64 | 0.825 | 0.638 | 0.717 | 0.611 | 0.824 | 0.636 | 0.6 | 0.876 | 0.72 | 0.761 | 0.363 | 0.615
